Experimental findings from ChEMBL document CHEMBL1139796, “Novel anti-tuberculosis agents from MCR libraries” (Bioorg Med Chem Lett, 2007) are described below.

≈ marks a conversion by molar mass, not a printed value. Where only a bound is given, the exact number is not on record here.

As usually defined, the IC50 is the concentration at which inhibition is half-maximal. Low values mean greater potency, high ones weaker potency. As a reminder, the MIC is the least concentration at which growth counts as inhibited. High values mean a less susceptible organism, low ones a more susceptible organism. One may read the EC90 as the point of the concentration-response curve where the effect stands at 90%. Lower therefore signals greater potency. By EC99 is commonly meant the point of the concentration-response curve where the effect stands at 99%. Read a high EC99 as a need for much substance.

For one test, the system named is Vero. Kind of test: Cytotoxicity against Vero cells. The format is cell-based. The following applies: Chlorocebus sabaeus.
Take `CCCCC(C(=O)NCc1ccccc1)N(C(=O)c1cnccn1)C1CCCCC1` (stereo unspecified): inhibition was half-maximal at 27.9 µg/mL (≈ 68.3 µM) (IC50). For the compound `CC(C)CCN(C(=O)c1cccnc1)C(C(=O)NCc1cccnc1)c1ccccc1` (stereo unspecified), the 50% inhibitory concentration (IC50) is 50.3 µg/mL (≈ 121 µM). On the same count and under the same terms, next, `C=CCNC(=O)C1(OC(=O)c2cccnc2)CCN(Cc2ccccc2)CC1`: greater than 62.5 µg/mL; `C=CCNC(=O)C(CCCC)N(CC=C)C(=O)c1cccnc1.Cl` (stereo unspecified): 31.1 µg/mL.

Test system in a further test: not listed separately
As to the kind of experiment: Selectivity index, IC50 for Vero cells to MIC for Mycobacterium tuberculosis H37Rv. The format is functional.
Settings: not given
The compound `CCCCC(C(=O)NCc1ccccc1)N(C(=O)c1cnccn1)C1CCCCC1` (stereo unspecified) displayed a Selectivity index of 9.9. `CC(C)CCN(C(=O)c1cccnc1)C(C(=O)NCc1cccnc1)c1ccccc1` (stereo unspecified) registered a Selectivity index of 16.1.

For `C=CCNC(=O)C1(OC(=O)c2cccnc2)CCN(Cc2ccccc2)CC1`, the Selectivity index is greater than 10.

`C=CCNC(=O)C(CCCC)N(CC=C)C(=O)c1cccnc1.Cl` (stereo unspecified) returned a Selectivity index of 9.9.

The subject of a further test is Mycobacterium tuberculosis. Kind of test: Antimycobacterial activity against Mycobacterium tuberculosis H37Rv by broth microdilution alamar blue assay. In kind it is functional.
Settings: not given
(In general: Dilution methods test growth across graded concentrations, often in twofold steps.)
In the case of `CCCCC(C(=O)NCc1ccccc1)N(C(=O)c1cnccn1)C1CCCCC1` (stereo unspecified), the minimum inhibitory concentration (MIC) came out at 3.13 µg/mL (≈ 7.66 µM). The compound `CC(C)CCN(C(=O)c1cccnc1)C(C(=O)NCc1cccnc1)c1ccccc1` (stereo unspecified) had an MIC of 3.13 µg/mL (≈ 7.51 µM). Turning to `C=CCNC(=O)C1(OC(=O)c2cccnc2)CCN(Cc2ccccc2)CC1`, it took 6.25 µg/mL (≈ 16.5 µM) to inhibit growth (MIC). On the same count and under the same terms, under `C=CCNC(=O)C(CCCC)N(CC=C)C(=O)c1cccnc1.Cl` (stereo unspecified) stands 3.13 µg/mL.

A further test has as its system Mycobacterium tuberculosis. Kind of test: Antimycobacterial activity against Mycobacterium tuberculosis at 12.5 ug/ml. The conditions noted are these: read-out: GI. In kind it is functional.
Take `C=CCNC(=O)C(CCCCC)N(C(=O)c1cccnc1)C1CCCCC1` (stereo unspecified): the inhibition of growth at 12.5 µg/mL turned out to be 100%. Still for that read-out and setting: next, `C=CCNC(=O)C(N(CCCn1ccnc1)C(=O)c1cccnc1)C(Cl)(Cl)Cl` (stereo unspecified): 61%. Still for that read-out and setting: next, `C=CCNC(=O)C(CCCCC)N(CC(C)(C)C)C(=O)c1cccnc1` (stereo unspecified): 73%. On to `C=CCNC(=O)C(CCCC)N(CCCn1ccnc1)C(=O)c1cccnc1` (stereo unspecified), for which the inhibition of growth at 12.5 µg/mL stood at 89%. The same measure, in the same setting: under `C=CCNC(=O)C(CCCC)N(C(=O)c1cccnc1)C1CCCCC1` (stereo unspecified) stands 100%; under `C=CCNC(=O)C(CCCC)N(CC=C)C(=O)c1cccnc1` (stereo unspecified), 100%.

`C=CCNC(=O)C(CCCC)N(C(=O)c1cccnc1)C1CC1` (stereo unspecified): the inhibition of growth at 12.5 µg/mL came out at 96%. Still for that read-out and setting: next, `C=CCNC(=O)C(C(C)C)N(C(=O)c1cccnc1)C(C)c1ccccc1` (stereo unspecified): 77%; `C=CCNC(=O)C(N(Cc1ccncc1)C(=O)c1cccnc1)C(F)(F)F` (stereo unspecified): 58%; `C=CCNC(=O)C(N(CCCn1ccnc1)C(=O)c1cccnc1)C(F)(F)F` (stereo unspecified): 71%. The same measure, in the same setting: next, `C=CCNC(=O)C(C(C)C)N(CC(C)(C)C)C(=O)c1cccnc1` (stereo unspecified): 76%; `C=CCNC(=O)C(N(C(=O)c1cccnc1)C1CC1)C(Cl)(Cl)Cl` (stereo unspecified): 9%; `C=CCNC(=O)C(N(C(=O)c1cccnc1)C1CCCCC1)C(F)(F)F` (stereo unspecified): 60%.

For `C=CCNC(=O)C(N(CCCN1CCOCC1)C(=O)c1cccnc1)C(F)(F)F` (stereo unspecified), the inhibition of growth at 12.5 µg/mL amounted to 72%. On the same count and under the same terms, next, `C=CCNC(=O)C(N(C(=O)c1cccnc1)C1CC1)C(F)(F)F` (stereo unspecified): 74%. Still for that read-out and setting: next, `C=CCNC(=O)C(C)(c1ccccc1)N(C(=O)c1cccnc1)C(C)c1ccccc1` (stereo unspecified): 83%; `C=CCNC(=O)C1(N(CCCn2ccnc2)C(=O)c2cccnc2)CCN(Cc2ccccc2)CC1`: 46%; `C=CCNC(=O)C1(N(CC=C)C(=O)c2cccnc2)CCN(Cc2ccccc2)CC1`: 94%.

Regarding `C=CCNC(=O)C1(N(C(=O)c2cccnc2)C(C)c2ccccc2)CCN(Cc2ccccc2)CC1` (stereo unspecified), the inhibition of growth at 12.5 µg/mL was found to be 54%.

With `C=CCNC(=O)C(C(C)C)N(CCCN1CCOCC1)C(=O)c1cccnc1` (stereo unspecified), the inhibition of growth at 12.5 µg/mL stood at 33%. Still for that read-out and setting: under `C=CCNC(=O)C(N(CC=C)C(=O)c1cccnc1)C(F)(F)F` (stereo unspecified) stands 6%. As to `C=CCNC(=O)C(C)(c1ccccc1)N(CC(C)(C)C)C(=O)c1cccnc1` (stereo unspecified), the inhibition of growth at 12.5 µg/mL turned out to be 67%. Same read-out and setting: next, `C=CCNC(=O)C(C)(c1ccccc1)N(C(=O)c1cccnc1)C1CC1` (stereo unspecified): 72%; `C=CCNC(=O)C1(N(Cc2ccncc2)C(=O)c2cccnc2)CCCCC1`: 87%. On the same count and under the same terms, next, `C=CCNC(=O)C1(N(CC(C)(C)C)C(=O)c2cccnc2)CCN(Cc2ccccc2)CC1`: 28%.

As for `C=CCNC(=O)C1(N(CCCN2CCOCC2)C(=O)c2cccnc2)CCN(Cc2ccccc2)CC1`, the inhibition of growth at 12.5 µg/mL came to 33%. The same measure, in the same setting: next, `C=CCNC(=O)C(C)(c1ccccc1)N(C(=O)c1cccnc1)C1CCCCC1` (stereo unspecified): 57%. `C=CCNC(=O)C1(N(C(=O)c2cccnc2)C2CCCCC2)CCCCC1`: the inhibition of growth at 12.5 µg/mL came to 76%. On the same count and under the same terms, next, `C=CCNC(=O)C1(N(CC=C)C(=O)c2cccnc2)CCCCC1`: 80%; `C=CCNC(=O)C1(N(C(=O)c2cccnc2)C(C)c2ccccc2)CCCCC1` (stereo unspecified): 74%; `C=CCNC(=O)C(C(C)C)N(C(=O)c1cccnc1)C1CC1` (stereo unspecified): 57%. Regarding `C=CCNC(=O)C(N(CC(C)(C)C)C(=O)c1cccnc1)C(F)(F)F` (stereo unspecified), the inhibition of growth at 12.5 µg/mL came to 77%. Consider `C=CCNC(=O)C1(N(CC(C)(C)C)C(=O)c2cccnc2)CCCCC1`, for which the inhibition of growth at 12.5 µg/mL is 99%.

As for `C=CCNC(=O)C1(N(CCCN2CCOCC2)C(=O)c2cccnc2)CCCCC1`, the inhibition of growth at 12.5 µg/mL is 49%. With `C=CCNC(=O)C1(N(C(=O)c2cccnc2)C2CC2)CCCCC1`, the inhibition of growth at 12.5 µg/mL is 71%. For `C=CCNC(=O)C(CCCC)N(C(=O)c1cccnc1)C(C)c1ccccc1` (stereo unspecified), the inhibition of growth at 12.5 µg/mL worked out at 100%. Same read-out and setting: next, `C=CCNC(=O)C(CCCCC)N(CC=C)C(=O)c1cccnc1` (stereo unspecified): 11%; `C=CCNC(=O)C(N(C(=O)c1cccnc1)C1CCCCC1)C(Cl)(Cl)Cl` (stereo unspecified): 74%. In the case of `C=CCNC(=O)C(CCCCC)N(CCCN1CCOCC1)C(=O)c1cccnc1` (stereo unspecified), the inhibition of growth at 12.5 µg/mL amounted to 74%. Regarding `C=CCNC(=O)C(N(CC=C)C(=O)c1cccnc1)C(Cl)(Cl)Cl` (stereo unspecified), the inhibition of growth at 12.5 µg/mL was found to be 6%. For `C=CCNC(=O)C(C(C)C)N(Cc1ccncc1)C(=O)c1cccnc1` (stereo unspecified), the inhibition of growth at 12.5 µg/mL is 50%.

For the compound `C=CCNC(=O)C(C(C)C)N(CCCn1ccnc1)C(=O)c1cccnc1` (stereo unspecified), the inhibition of growth at 12.5 µg/mL is 43%.

In the case of `C=CCNC(=O)C(N(C(=O)c1cccnc1)C(C)c1ccccc1)C(F)(F)F` (stereo unspecified), the inhibition of growth at 12.5 µg/mL is 90%.

As to `C=CCNC(=O)C(C)(c1ccccc1)N(Cc1ccncc1)C(=O)c1cccnc1` (stereo unspecified), the inhibition of growth at 12.5 µg/mL is 68%. As for `C=CCNC(=O)C(C)(c1ccccc1)N(CCCn1ccnc1)C(=O)c1cccnc1` (stereo unspecified), the inhibition of growth at 12.5 µg/mL turned out to be 71%. For the compound `C=CCNC(=O)C(C)(c1ccccc1)N(CCCN1CCOCC1)C(=O)c1cccnc1` (stereo unspecified), the inhibition of growth at 12.5 µg/mL was found to be 72%. On the same count and under the same terms, next, `C=CCNC(=O)C(C(C)C)N(CC=C)C(=O)c1cccnc1` (stereo unspecified): 6%. As to `C=CCNC(=O)C1(N(CCCn2ccnc2)C(=O)c2cccnc2)CCCCC1`, the inhibition of growth at 12.5 µg/mL was determined as 43%. As for `C=CCNC(=O)C1(N(Cc2ccncc2)C(=O)c2cccnc2)CCN(Cc2ccccc2)CC1`, the inhibition of growth at 12.5 µg/mL was found to be 64%.

`C=CCNC(=O)C(C)(c1ccccc1)N(CC=C)C(=O)c1cccnc1` (stereo unspecified): the inhibition of growth at 12.5 µg/mL stood at 69%.

As to `C=CCNC(=O)C1(N(C(=O)c2cccnc2)C2CCCCC2)CCN(Cc2ccccc2)CC1`, the inhibition of growth at 12.5 µg/mL is 101%. Same read-out and setting: next, `C=CCNC(=O)C(CCCCC)N(C(=O)c1cccnc1)C1CC1` (stereo unspecified): 90%; `C=CCNC(=O)C(CCCCC)N(CCCn1ccnc1)C(=O)c1cccnc1` (stereo unspecified): 82%. `C=CCNC(=O)C(CCCCC)N(Cc1ccncc1)C(=O)c1cccnc1` (stereo unspecified): the inhibition of growth at 12.5 µg/mL turned out to be 89%. Still for that read-out and setting: next, `C=CCNC(=O)C(N(C(=O)c1cccnc1)C(C)c1ccccc1)C(Cl)(Cl)Cl` (stereo unspecified): 82%; `C=CCNC(=O)C(N(CC(C)(C)C)C(=O)c1cccnc1)C(Cl)(Cl)Cl` (stereo unspecified): 74%.

`C=CCNC(=O)C(N(Cc1ccncc1)C(=O)c1cccnc1)C(Cl)(Cl)Cl` (stereo unspecified): the inhibition of growth at 12.5 µg/mL was 49%. On the same count and under the same terms, next, `C=CCNC(=O)C(N(CCCN1CCOCC1)C(=O)c1cccnc1)C(Cl)(Cl)Cl` (stereo unspecified): 78%. The same measure, in the same setting: under `C=CCNC(=O)C(CCCC)N(CCCN1CCOCC1)C(=O)c1cccnc1` (stereo unspecified) stands 69%; under `C=CCNC(=O)C(CCCCC)N(C(=O)c1cccnc1)C(C)c1ccccc1` (stereo unspecified), 95%; under `C=CCNC(=O)C(CCCC)N(CC(C)(C)C)C(=O)c1cccnc1` (stereo unspecified), 102%. Still for that read-out and setting: under `C=CCNC(=O)C(C(C)C)N(C(=O)c1cccnc1)C1CCCCC1` (stereo unspecified) stands 62%.

A further test concerns Mycobacterium tuberculosis. As to the kind of experiment: Reduction of Mycobacterium tuberculosis H37Rv growth in mouse peritoneal macrophage monolayers after 7 days. The format is functional. The following applies: 168 h.
For the compound `CC(C)CCN(C(=O)c1cccnc1)C(C(=O)NCc1cccnc1)c1ccccc1` (stereo unspecified), the EC90 was greater than 12.5 µg/mL and the concentration for an effect of 99% (EC99) is greater than 12.5 µg/mL.
